{"source": "patent US11396643B2", "about": "“Compositions comprising bacterial strains and use thereof in controlling pathogenic microorganisms” (Better Air International Limited, priority 2018, dated 2022)", "assay_in_all_cases": "Agar well diffusion antifungal assay", "assay_type_in_all_cases": "cell-based", "details_in_all_cases": "PDA plates, 25° C. 72 h", "key": {"[1]": {"tested_on": "Penicillium chrysogenum Thom (ATCC MYA-4644)", "method": "(§1) Brain Heart Infusion (BHI) Agar was used for the antagonism against pathogenic microorganisms while the Potato Dextrose Agar (PDA) was used for evaluation against molds. […] Molds were prepared using PDA at 25° C. with 85% HR for 7 days. […] The same amount of mold spore suspension was inoculated on PDA."}, "[2]": {"tested_on": "Cladosporium sphaerospermum Penzig (ATCC MYA-4645)", "method": "as §1"}, "[3]": {"tested_on": "Alternaria alternata (Fries) Keissler (ATCC MYA-4642)", "method": "as §1"}}}
{"smiles": "OO", "note": "[Hydrogen peroxide 10%, Hydrogen peroxide]", "values": [{"measurement": "Inhibition zone, Penicillium chrysogenum Thom (ATCC MYA-4644)", "setting": "[1]", "value": 10, "unit": "mm"}, {"measurement": "Inhibition zone, Cladosporium sphaerospermum Penzig (ATCC MYA-4645)", "setting": "[2]", "value": 12, "unit": "mm"}, {"measurement": "Inhibition zone, Alternaria alternata (Fries) Keissler (ATCC MYA-4642)", "setting": "[3]", "value": 8, "unit": "mm"}]}
